In general, Ki refers to a dissociation constant, usually derived from enzyme kinetics or from competition with a known ligand. Low values mean tighter binding, high ones weaker binding. One may read the inhibition as the percentage by which the read-out fell short of the control. Read a high inhibition as a strong effect.

For data set [1], the target named is 5-hydroxytryptamine receptor 7 (Homo sapiens, UniProt P34969). Kind of data set: biochemical. It is filed as cell-based, CHO-K1.
The target of data set [2] is 5-hydroxytryptamine receptor 2A (Homo sapiens, UniProt P28223). Kind of data set: biochemical. It is filed as cell-based, CHO-K1.
The target in data set [3] is hERG (KCNH2) potassium channel (Homo sapiens, UniProt Q12809). Kind of data set: in vitro. To be noted: CHO cells expressing human cloned ERG.
For data set [4], the target named is 5-hydroxytryptamine receptor 6 (Homo sapiens, UniProt P50406). Kind of data set: biochemical.
The target of the next data set is D(2) dopamine receptor (Homo sapiens, UniProt P14416). As to the kind of experiment: biochemical.

Molecules are shown by their SMILES. Some results are limits rather than exact numbers.

hERG (KCNH2) potassium channel, sequence (Q12809 whole entry): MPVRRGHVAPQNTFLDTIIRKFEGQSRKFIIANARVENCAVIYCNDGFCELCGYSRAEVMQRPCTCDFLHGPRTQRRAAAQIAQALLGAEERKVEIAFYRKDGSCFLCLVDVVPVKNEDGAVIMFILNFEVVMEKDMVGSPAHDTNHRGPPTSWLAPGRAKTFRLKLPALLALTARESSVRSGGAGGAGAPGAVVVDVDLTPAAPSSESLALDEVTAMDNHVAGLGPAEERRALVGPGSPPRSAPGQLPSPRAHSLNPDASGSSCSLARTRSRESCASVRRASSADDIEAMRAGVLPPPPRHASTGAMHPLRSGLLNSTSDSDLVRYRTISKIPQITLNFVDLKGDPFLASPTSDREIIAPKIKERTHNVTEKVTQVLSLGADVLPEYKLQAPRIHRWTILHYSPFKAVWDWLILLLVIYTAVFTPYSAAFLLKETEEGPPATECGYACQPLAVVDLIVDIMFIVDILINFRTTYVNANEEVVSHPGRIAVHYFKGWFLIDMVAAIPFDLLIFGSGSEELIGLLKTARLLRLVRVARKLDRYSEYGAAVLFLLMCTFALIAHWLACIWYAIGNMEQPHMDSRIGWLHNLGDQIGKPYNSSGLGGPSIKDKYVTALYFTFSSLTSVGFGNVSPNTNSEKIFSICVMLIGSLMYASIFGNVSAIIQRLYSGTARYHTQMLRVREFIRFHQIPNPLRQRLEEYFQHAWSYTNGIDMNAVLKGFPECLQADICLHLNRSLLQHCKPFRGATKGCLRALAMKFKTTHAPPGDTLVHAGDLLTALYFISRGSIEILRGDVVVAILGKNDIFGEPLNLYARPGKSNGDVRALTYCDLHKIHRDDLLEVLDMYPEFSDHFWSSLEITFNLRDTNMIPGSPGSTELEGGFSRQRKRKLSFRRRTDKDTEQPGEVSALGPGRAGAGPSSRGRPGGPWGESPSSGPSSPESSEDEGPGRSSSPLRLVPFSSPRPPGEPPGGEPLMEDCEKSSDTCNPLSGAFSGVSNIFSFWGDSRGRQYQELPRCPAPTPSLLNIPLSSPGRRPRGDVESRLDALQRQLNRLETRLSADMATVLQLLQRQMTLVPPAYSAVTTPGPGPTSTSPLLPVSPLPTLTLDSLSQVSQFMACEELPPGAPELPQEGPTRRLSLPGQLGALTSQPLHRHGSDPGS
5-hydroxytryptamine receptor 7, sequence (P34969 whole entry): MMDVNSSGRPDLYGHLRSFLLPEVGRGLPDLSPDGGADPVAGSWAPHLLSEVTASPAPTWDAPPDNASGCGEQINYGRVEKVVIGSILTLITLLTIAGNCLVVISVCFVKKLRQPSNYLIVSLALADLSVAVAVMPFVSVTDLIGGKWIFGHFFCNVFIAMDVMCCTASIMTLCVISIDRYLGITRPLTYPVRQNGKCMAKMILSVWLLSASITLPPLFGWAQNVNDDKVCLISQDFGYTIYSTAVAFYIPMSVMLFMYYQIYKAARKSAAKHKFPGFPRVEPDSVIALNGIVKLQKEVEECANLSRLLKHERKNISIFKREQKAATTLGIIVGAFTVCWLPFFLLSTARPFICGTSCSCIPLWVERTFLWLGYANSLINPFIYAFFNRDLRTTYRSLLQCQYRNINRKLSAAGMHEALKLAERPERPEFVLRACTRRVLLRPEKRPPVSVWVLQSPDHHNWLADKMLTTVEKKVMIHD
5-hydroxytryptamine receptor 2A, sequence (P28223 whole entry): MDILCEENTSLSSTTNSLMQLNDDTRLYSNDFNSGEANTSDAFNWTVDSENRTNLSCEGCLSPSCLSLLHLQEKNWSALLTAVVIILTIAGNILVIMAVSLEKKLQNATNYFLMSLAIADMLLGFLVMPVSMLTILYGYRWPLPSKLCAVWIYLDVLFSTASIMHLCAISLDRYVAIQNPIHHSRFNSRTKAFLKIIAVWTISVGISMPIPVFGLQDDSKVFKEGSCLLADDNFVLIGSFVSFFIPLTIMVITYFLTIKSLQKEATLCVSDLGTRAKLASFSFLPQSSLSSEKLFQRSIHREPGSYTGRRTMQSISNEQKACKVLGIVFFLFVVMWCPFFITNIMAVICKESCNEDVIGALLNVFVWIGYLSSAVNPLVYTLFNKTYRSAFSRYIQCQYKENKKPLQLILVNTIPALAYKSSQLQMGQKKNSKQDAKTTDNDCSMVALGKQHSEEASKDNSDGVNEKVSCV
D(2) dopamine receptor, sequence (P14416 whole entry): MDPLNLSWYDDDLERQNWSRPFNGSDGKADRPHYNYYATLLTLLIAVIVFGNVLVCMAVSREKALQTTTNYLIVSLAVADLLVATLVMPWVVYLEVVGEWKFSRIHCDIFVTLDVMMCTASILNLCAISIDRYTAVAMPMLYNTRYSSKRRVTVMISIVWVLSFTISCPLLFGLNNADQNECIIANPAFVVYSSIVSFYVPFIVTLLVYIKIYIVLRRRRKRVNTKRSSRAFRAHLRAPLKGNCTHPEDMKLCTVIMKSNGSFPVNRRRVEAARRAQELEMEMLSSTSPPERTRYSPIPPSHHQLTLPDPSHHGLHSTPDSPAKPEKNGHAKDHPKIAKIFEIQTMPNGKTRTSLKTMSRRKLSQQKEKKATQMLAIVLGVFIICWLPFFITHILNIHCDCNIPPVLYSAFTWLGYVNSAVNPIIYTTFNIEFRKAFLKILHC
5-hydroxytryptamine receptor 6, sequence (P50406 whole entry): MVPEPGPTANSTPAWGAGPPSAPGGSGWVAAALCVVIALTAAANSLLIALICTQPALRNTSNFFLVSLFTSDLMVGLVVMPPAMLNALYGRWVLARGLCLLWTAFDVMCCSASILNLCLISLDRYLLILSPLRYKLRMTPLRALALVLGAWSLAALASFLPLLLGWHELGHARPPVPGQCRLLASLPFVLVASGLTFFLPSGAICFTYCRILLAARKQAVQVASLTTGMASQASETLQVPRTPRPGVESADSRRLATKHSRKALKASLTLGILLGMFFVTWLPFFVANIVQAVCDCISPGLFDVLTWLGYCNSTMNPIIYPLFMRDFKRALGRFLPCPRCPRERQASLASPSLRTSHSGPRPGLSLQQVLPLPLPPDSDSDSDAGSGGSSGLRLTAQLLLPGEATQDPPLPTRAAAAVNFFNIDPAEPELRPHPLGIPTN

As for `O=S(=O)(NCCCN1CCN(c2nsc3ccccc23)CC1)c1ccc(F)c(Cl)c1`, the Ki was 9.5 nM in data set [1], 14 nM in data set [2], 5.1 nM in data set [4] and 37 nM on D(2) dopamine receptor. This compound registered an inhibition at 1 µM in data set [3] of 36%.
On the same counts, the results for `Cc1cccc(S(=O)(=O)NCCN2CCN(c3nsc4ccccc34)CC2)c1` are 3.8 nM, 8.8 nM, 430 nM, 43 nM and 4%.
On the same counts, the results for `O=S(=O)(NCCCN1CCC(c2noc3cc(F)ccc23)CC1)c1cccs1` are 0.9 nM, 5.1 nM, 66 nM, 8.7 nM and 53%.
The matching figures for `O=S(=O)(NCCCCN1CCN(c2noc3ccccc23)CC1)c1cccc2scnc12`: 57 nM, 6100 nM, greater than 10000 nM, 170 nM and 26%.
`O=S(=O)(NCCCCN1CCN(c2noc3ccccc23)CC1)c1ccc(Cl)c(Cl)c1`: the Ki turned out to be 0.7 nM in data set [1], 10 nM in data set [2], 29 nM in data set [4] and 57 nM on D(2) dopamine receptor. For the same compound, testing at 1 µM in data set [3] gave an inhibition of 24%.
On to `O=S(=O)(NCCCCN1CCN(c2nsc3ccccc23)CC1)c1ccc2cc(Cl)ccc2c1`, for which the inhibition constant Ki turned out to be 33 nM in data set [1], 8.1 nM in data set [2], 61 nM in data set [4] and 49 nM at D(2) dopamine receptor. Also, in data set [3], the inhibition at 1 µM turned out to be 12%.
The matching figures for `Cc1c(S(=O)(=O)NCCCN2CCN(c3noc4ccccc34)CC2)sc2ccc(F)cc12`: 200 nM, 1200 nM, greater than 10000 nM, greater than 10000 nM and 15%.
On the same counts, the results for `O=S(=O)(NCCCN1CCN(c2nsc3ccccc23)CC1)c1ccc(OC(F)(F)F)cc1` are 29 nM, 9.5 nM, 56 nM, 27 nM and 50%.
Regarding `O=S(=O)(NCCCN1CCN(c2nsc3ccccc23)CC1)c1cccs1`, the Ki in data set [1] was determined as 23 nM; in data set [2], 9.1 nM; in data set [4], 140 nM; on D(2) dopamine receptor, 56 nM. Also, 1 µM produced 33% inhibition in data set [3].
On the same counts, the results for `O=S(=O)(NCCCCN1CCN(c2nsc3ccccc23)CC1)c1ccc(OC(F)(F)F)cc1` are 19 nM, 2.2 nM, 47 nM, 48 nM and 20%.
On the same counts, the results for `O=S(=O)(NCCCCN1CCC(c2noc3cc(F)ccc23)CC1)c1cccc2scnc12` are 13 nM, 8.5 nM, 70 nM, 25 nM and 69%.
On to `O=S(=O)(NCCCN1CCN(c2nsc3ccccc23)CC1)c1ccc(Cl)c(Cl)c1`, for which the Ki in data set [1] was 20 nM; in data set [2] it was 25 nM; in data set [4] it was 15 nM; at D(2) dopamine receptor it was 7.8 nM. In addition, the inhibition at 1 µM in data set [3] came out at 21%.
On the same counts, the results for `Cc1cccc(S(=O)(=O)NCCCN2CCN(c3noc4ccccc34)CC2)c1` are 10 nM, 4200 nM, 1500 nM, 2000 nM and 8%.
On the same counts, the results for `O=S(=O)(NCCCN1CCN(c2nsc3ccccc23)CC1)c1cc2ccccc2s1` are 13 nM, 11 nM, 63 nM, 48 nM and 12%.
Consider `O=S(=O)(NCCN1CCN(c2nsc3ccccc23)CC1)c1ccc2ccccc2c1`, for which the Ki was 1.5 nM in data set [1], 0.9 nM in data set [2], 680 nM in data set [4] and 18 nM at D(2) dopamine receptor. Also, in data set [3], testing at 1 µM gave an inhibition of 0%.

Values taken from ChEMBL document CHEMBL3286108, “Novel arylsulfonamide derivatives with 5-HT₆/5-HT₇ receptor antagonism targeting behavioral and psychological symptoms of dementia” (J Med Chem, 2014).
